Where two headings read alike, the source gives them in different places.
How the values were obtained:
[1] = biological target: T1, CCK receptor (pancreas) (Rattus norvegicus, UniProt P30551); assay: CCK Receptor Binding (Pancreas), inhibition of 125I-CCK-8 binding; parameters: species or system rat (male Sprague-Dawley)
T1 construct: The whole pancreas was dissected free of fat tissue and was homogenized; from tissue; host or cells: pancreas of male Sprague-Dawley rats (membrane homogenate)
T1 sequence (P30551 1-444): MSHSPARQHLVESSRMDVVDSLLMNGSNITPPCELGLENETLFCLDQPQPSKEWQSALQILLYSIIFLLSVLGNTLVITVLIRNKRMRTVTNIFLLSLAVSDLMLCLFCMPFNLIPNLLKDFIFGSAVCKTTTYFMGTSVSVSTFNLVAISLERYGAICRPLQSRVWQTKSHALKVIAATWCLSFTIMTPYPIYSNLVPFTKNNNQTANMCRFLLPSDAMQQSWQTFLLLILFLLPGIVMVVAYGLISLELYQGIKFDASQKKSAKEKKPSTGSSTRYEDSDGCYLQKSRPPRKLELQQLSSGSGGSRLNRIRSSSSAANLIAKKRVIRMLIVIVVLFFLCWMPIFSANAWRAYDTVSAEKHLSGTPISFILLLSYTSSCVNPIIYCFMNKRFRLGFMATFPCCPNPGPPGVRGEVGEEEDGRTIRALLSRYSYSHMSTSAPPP
Protocol: Male Sprague-Dawley rats (150-200 g) were sacrificed by decapitation. The whole pancreas was dissected free of fat tissue and was homogenized in 25 volumes of ice-cold 10 mMN-2-hydroxyethyl-piperazine-N'-2-ethane sulphonic acid (HEPES) buffer with 0.1% soya bean trypsin inhibitor (pH 7.4 at 25° C.) with a Kinematica Polytron. The homogenates were centrifuged at 47,800 g for 10 min. Pellets were resuspended in 10 volumes of binding assay buffer (20mM (HEPES)), 1 mM ethylene glycol-bis-(β-aminoethylether-N,N'-tetraacetic acid) (EGTA), 5mM MgCl2, 150 mM NaCl, bacitracin 0.25 mg/ml, soya bean trypsin inhibitor 0.1 mg/ml, and bovine serum albumin 2 mg/ml pH 6.5 at 25° C.) using a Teflon (trademark) homogenizer, 15 strokes at 500 rpm. The homogenate was further diluted in binding assay buffer to give a final concentration of 0.5 mg original wet weight/1 ml buffer. […] All assays were run in duplicate. The reaction mixtures were incubated at 25° C. for 2 hours and the reaction terminated by rapid filtration (Brandell 24 well cell harvester) over Whatman GF/C filters, washing 3×4 mls with ice-cold 100 Mm NaCl. The radioactivity on the filters was counted with a LKB gamma counter.

[2] = biological target: T2, CCK receptor (brain) (Cavia porcellus, UniProt H0VZC5); assay: CCK Receptor Binding (Brain), inhibition of 125I-CCK-8 binding; parameters: species or system guinea pig (male Hartley); settings: guinea pig cortex membranes, 50 pM 125I-CCK-8, pH 6.5, 25° C., 2 hours
T2 construct: the cortex was removed and homogenized in 25 mL ice-cold 0.32M sucrose; from tissue; host or cells: cortex of male Hartley guinea pigs (P2 membrane pellet)
T2 sequence (H0VZC5 1-426): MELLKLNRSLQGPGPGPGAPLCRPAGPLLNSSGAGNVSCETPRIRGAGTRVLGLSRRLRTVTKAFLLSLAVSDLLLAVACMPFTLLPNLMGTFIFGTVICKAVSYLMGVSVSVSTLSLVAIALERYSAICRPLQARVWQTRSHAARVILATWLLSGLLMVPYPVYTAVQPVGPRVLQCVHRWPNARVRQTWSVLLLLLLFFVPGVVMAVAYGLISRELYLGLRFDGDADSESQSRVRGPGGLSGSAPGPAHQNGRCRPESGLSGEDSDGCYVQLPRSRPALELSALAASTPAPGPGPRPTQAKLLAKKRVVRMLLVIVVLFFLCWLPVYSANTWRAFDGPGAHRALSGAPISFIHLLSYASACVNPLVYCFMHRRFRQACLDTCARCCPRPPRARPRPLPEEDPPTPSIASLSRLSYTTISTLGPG
Protocol: CCK-8 sulphated was radiolabelled and the binding was performed according to the description for the pancreas method with minor modifications.
Male Hartley guinea pigs (300-500 g) were sacrificed by decapitation and the cortex was removed and homogenized in 25 mL ice-cold 0.32M sucrose. The homogenates were centrifuged at 1000 g for 10 minutes and the resulting supernatant was recentrifuged at 20,000 g for 20 minutes. The P2 pellet was resuspended in binding assay buffer (20mM HEPES, 5 mM MgCl2, 0.25 mg/ml bacitracin, 1 mM EGTA pH 6.5 at 25° C.), using a Teflon (trademark) homogenizer (5 strokes at 500 rpm) to give a final concentration of 10 mg original wet weight/1.2 ml buffer. For the binding assay, 50 μl of buffer (for total binding) or unlabelled CCK-8 sulphated to give a final concentration of 1 μM (for nonspecific binding) or the compounds of Formula I (for determination of inhibition of ^125 I-CCK-8 binding) and 50 μl of 500 pM ^125 I-CCK-8 (i.e. final concentration of 50 pM) were added to 400 μl of the membrane suspensions in microfuge tubes. All assays were run in duplicate. The reaction mixtures were incubated at 25° C. for 2 hours and then the reaction was terminated by rapid filtration (Brandell 24 well cell harvester) on Whatman GF/C filters with 3×5 ml washes of cold 100 mM NaCl. The radioactivity on the filters was counted with a LKB gamma counter.
Drug displacement studies were performed with at least 10 concentrations of compounds of Formula I and the IC50 values were determined by regression analysis IC50 refers to the concentration of the compound required to inhibit 50% of specific binding of ^125 I-CCK-8.

[3] = rat pancreas membranes, 50 pM 125I-CCK-8, pH 6.5, 25° C., 2 hours, read-out: CCK RECEPTOR BINDING RESULTS IC50, 125I-CCK Pancreas

Row | Compound | IC50 [1, 3] | IC50 [2] | IC50 [1]
1 | CN1C(=O)C(NC(=O)Nc2cccc(C3=C(O)CNC3=O)c2)N=C(C2CCCCC2)c2ccccc21 (racemic) [Example 2, N-[3(R,S)-5-Cyclohexyl-2,3-dihydro-1-methyl-2-oxo-1H-1,4-benzodiazepin-3-yl]N'-[3-(2,5-dihydro-4-hydroxy-2-oxopyrrol-3-yl)phenyl]urea] | 7.5 nM | 2.9 nM | 
2 | CN1C(=O)C(NC(=O)Nc2cccc(C3=C(O)CSC3=O)c2)N=C(C2CCCCC2)c2ccccc21 (racemic) [Example 1, N-[3(R,S)-5-Cyclohexyl-2,3,dihydro-1-methyl-2-oxo-1H-1,4-benzodiazepin-3-yl]N', [3-(2,5,dihydro-4-hydroxy-2-oxothien,3-yl)phenyl]urea] | 13 nM | 3.9 nM | 
3 | CN1CC(O)=C(c2cccc(NC(=O)N[C@@H]3N=C(C4CCCCC4)c4ccccc4N(C)C3=O)c2)C1=O [Example 5, N-[3(R)-5-Cyclohexyl-2,3-dihydro-1-methyl-2-oxo-1H-1,4-benzodiazepin-3-yl]N'-[3-(2,5-dihydro-4-hydroxy-N-methyl-2-oxopyrrol-3-yl)phenyl] urea] | 280 nM | 2.5 nM | 
4 | CN1C(=O)[C@H](NC(=O)Nc2cccc(C3=C(O)CNC3=O)c2)N=C(c2ccccc2)c2ccccc21 [Example 3, N-[3(R)-2,3-Dihydro-1-methyl-2-oxo-5-phenyl-1H-1,4-benzodiazepin-3-yl]N'-[3-(2,5-dihydro-4-hydroxy-2-oxopyrrol-3-yl)phenyl]urea] |  | 16 nM | > 3000 nM
5 | CN1C(=O)[C@H](NC(=O)Nc2cccc(C3=C(O)CNC3=O)c2)N=C(C2CCCCC2)c2ccccc21 [Example 6, N-[3(R)-5-Cyclohexyl-2,3-dihydro-1-methyl-2-oxo-1H-1,4-benzodiazepin-3-yl]N'-[3-(2,5-dihydro-4-hydroxy-2oxopyrrol-3-yl)phenyl]urea] | 110 nM | 0.67 nM | 
6 | CN1CC(O)=C(c2cccc(NC(=O)NC3N=C(C4CCCCC4)c4ccccc4N(C)C3=O)c2)C1=O (racemic) [Example 4, N-[3(R,S)-5-Cyclohexyl-2,3-dihydro-1-methyl-2-oxo-1H-1,4-benzodiazepin-3-yl]N'-[3-(2,5-dihydro-4-hydroxy-N-methyl-2-oxopyrrol-3-yl)phenyl]urea] | 56 nM | 6.3 nM | 

Reference: patent US5410049A, “Benzodiazepine derivatives, compositions containing them and their use in therapy” (Merck Sharpe & Dohme Ltd., priority 1991, dated 1995)
